The record followed here is the PolyMetriX glass transition set.

`*C(=O)c1ccc2c(c1)C(=O)N(c1ccc(Cc3ccc(C(=O)c4cccc(N5C(=O)c6ccc(*)cc6C5=O)c4)cc3)cc1)C2=O` (repeat unit): the glass transition temperature was found to be 290.00 °C.

In turn, `*Oc1ccc(C(=O)c2cccc(C(=O)c3ccc(*)c(C(C)C)c3)c2)cc1C` (repeat unit) returned a glass transition temperature of 147.00 °C.

As for `*c1ccc(-c2ccc(-c3cc(-c4ccc(Oc5ccc(-c6ccccc6)cc5)cc4)c4cc(-c5ccc6nc(*)cc(-c7ccc(Oc8ccc(-c9ccccc9)cc8)cc7)c6c5)ccc4n3)cc2)cc1` (repeat unit), the glass transition temperature turned out to be 364.00 °C.

The molecule `*c1ccc(C(=O)c2cccc(C(=O)c3ccc(S(*)(=O)=O)cc3)c2)cc1` (repeat unit) registered a glass transition temperature of 198.00 °C.

For the molecule `*c1ccc(Oc2ccc(Oc3ccc(Oc4ccc(N5C(=O)c6ccc(-c7ccc8c(c7)C(=O)N(*)C8=O)cc6C5=O)cc4)cc3)cc2)cc1` (repeat unit), the glass transition temperature came to 228.51 °C.

Turning to `*c1ccc(Oc2cccc(N3C(=O)c4ccc(-c5cccc6c5C(=O)N(*)C6=O)cc4C3=O)c2)cc1` (repeat unit), the glass transition temperature was 286.00 °C.

`*c1ccc(Oc2ccccc2Oc2ccc(N3C(=O)c4ccc(S(=O)(=O)c5ccc6c(c5)C(=O)N(*)C6=O)cc4C3=O)cc2C(F)(F)F)c(C(F)(F)F)c1` (repeat unit) had a glass transition temperature of 255.00 °C.

For `*c1ccc2c(c1)C(=O)N(c1ccc(Oc3ccc(Oc4ccc(N5C(=O)c6ccc(C(*)(C(F)(F)F)C(F)(F)F)cc6C5=O)cc4)cc3)c(C(F)(F)F)c1)C2=O` (repeat unit), the glass transition temperature worked out at 260.80 °C.

As to `*c1ccc2c(c1)C(=O)N(c1ccc(Oc3ccc(S(=O)(=O)c4ccc(Oc5ccc(N6C(=O)c7ccc(C(*)(C(F)(F)F)C(F)(F)F)cc7C6=O)cc5)cc4)cc3)cc1)C2=O` (repeat unit), the glass transition temperature was 276.50 °C.

On to `*c1ccc2c(c1)C(=O)N(c1ccc(Oc3ccc4ccc(Oc5ccc(N6C(=O)c7ccc(C(*)(C(F)(F)F)C(F)(F)F)cc7C6=O)cc5)cc4c3)cc1)C2=O` (repeat unit), for which the glass transition temperature came to 302.30 °C.

Take `*c1ccc2c(c1)C(=O)N(c1ccc(S(=O)(=O)c3ccc(N4C(=O)c5ccc(C(F)(F)C(F)(F)C(*)(F)F)cc5C4=O)cc3)cc1)C2=O` (repeat unit): the glass transition temperature turned out to be 259.00 °C.

Turning to `*c1ccc2c(c1)C(=O)N(c1ccc(S(=O)(=O)c3ccc(S(=O)(=O)c4ccc(S(=O)(=O)c5ccc(N6C(=O)c7ccc(C(*)(C(F)(F)F)C(F)(F)F)cc7C6=O)cc5)cc4)cc3)cc1)C2=O` (repeat unit), the glass transition temperature turned out to be 327.00 °C.

Consider `*c1ccc2c(c1)C(=O)N(c1ccc(Sc3ccc(N4C(=O)c5ccc(C(*)(C(F)(F)F)C(F)(F)F)cc5C4=O)cc3)cc1)C2=O` (repeat unit), for which the glass transition temperature is 301.00 °C.

On to `*c1ccc2c(c1)C(=O)N(c1ccc(Sc3ccc(Sc4ccc(Sc5ccc(N6C(=O)c7ccc(C(*)(C(F)(F)F)C(F)(F)F)cc7C6=O)cc5)cc4)cc3)cc1)C2=O` (repeat unit), for which the glass transition temperature came to 233.00 °C.

Turning to `*c1ccc2c(c1)C(=O)N(c1cccc(C(F)(F)C(F)(F)C(F)(F)C(F)(F)C(F)(F)c3cccc(N4C(=O)c5ccc(C(F)(F)C(F)(F)C(F)(F)C(F)(F)C(F)(F)C(F)(F)C(*)(F)F)cc5C4=O)c3)c1)C2=O` (repeat unit), the glass transition temperature turned out to be 108.50 °C.

The molecule `*c1ccc2c(c1)C(=O)N(c1cccc(C(F)(F)C(F)(F)C(F)(F)c3cccc(N4C(=O)c5ccc(C(F)(F)C(F)(F)C(F)(F)C(*)(F)F)cc5C4=O)c3)c1)C2=O` (repeat unit) registered a glass transition temperature of 159.00 °C.

For `*c1ccc2c(c1)C(=O)N(c1cccc(C(O)c3cccc(N4C(=O)c5ccc(C(*)(C(F)(F)F)C(F)(F)F)cc5C4=O)c3)c1)C2=O` (repeat unit), the glass transition temperature was 262.00 °C.

The molecule `*c1ccc2c(c1)C(=O)N(c1cccc(Oc3ccc(N4C(=O)c5ccc(C(*)(C(F)(F)F)C(F)(F)F)cc5C4=O)cc3)c1)C2=O` (repeat unit) returned a glass transition temperature of 260.00 °C.

`*c1ccc2c(c1)C(=O)N(c1cccc(Oc3ccc(Oc4cccc(N5C(=O)c6ccc(C(*)(C(F)(F)F)C(F)(F)F)cc6C5=O)c4)cc3)c1)C2=O` (repeat unit) came in with a glass transition temperature of 230.00 °C.

The molecule `*c1ccc2c(c1)C(CCCCCC)(CCCCCC)c1cc(-c3cc(CCCCCCCC)c(*)cc3CCCCCCCC)ccc1-2` (repeat unit) showed a glass transition temperature of 74.50 °C.

On to `*c1ccc2c(c1)C(CCCCCC)(CCCCCC)c1cc(-c3cc(OCCCCCCCC)c(*)cc3OCCCCCCCC)ccc1-2` (repeat unit), for which the glass transition temperature worked out at 58.00 °C.

`*c1ccc2c(c1)C(CCCCCC)(CCCCCC)c1cc(-c3ccc4c(c3)c3cc(*)ccc3n4-c3ccc(C)cc3)ccc1-2` (repeat unit) displayed a glass transition temperature of 155.00 °C.

For `*c1ccc2c(c1)C(CCCCCC)(CCCCCC)c1cc(-c3ccc4c(c3)c3cc(*)ccc3n4-c3ccc(OC)cc3)ccc1-2` (repeat unit), the glass transition temperature is 174.00 °C.

Molecule `*c1ccc2c(c1)C(CCCCCCCC)(CCCCCCCC)c1cc(-c3c(F)c(F)c(*)c(F)c3F)ccc1-2` (repeat unit) showed a glass transition temperature of 29.00 °C.

`*c1ccc2c(c1)C(CCCCCCCC)(CCCCCCCC)c1cc(-c3cc(F)c(*)cc3F)ccc1-2` (repeat unit) gave a glass transition temperature of 34.00 °C.

`*c1ccc2c(c1)Sc1cc(-c3ccc(-c4ccc(*)s4)s3)ccc1N2CCCCCCCCCCCC` (repeat unit) registered a glass transition temperature of 150.00 °C.

In the case of `*c1cccc(CCCOc2cccc(N3C(=O)c4cccc(-c5ccc6c(c5)C(=O)N(*)C6=O)c4C3=O)c2)c1` (repeat unit), the glass transition temperature is 178.00 °C.

In the case of `*c1cccc(Cc2cccc(N3C(=O)c4ccc([Si](C)(C)c5ccc6c(c5)C(=O)N(*)C6=O)cc4C3=O)c2)c1` (repeat unit), the glass transition temperature is 238.00 °C.

`*c1cccc(N2C(=O)c3ccc(C(c4ccc5c(c4)C(=O)N(c4cccc(-n6c(=O)c7cc8c(=O)n(*)c(=O)c8cc7c6=O)c4)C5=O)(C(F)(F)F)C(F)(F)F)cc3C2=O)c1` (repeat unit): the glass transition temperature is 338.00 °C.

`*c1cccc(OCCCCCCCCCCCCOc2cccc(N3C(=O)c4ccc(-c5ccc6c(c5)C(=O)N(*)C6=O)cc4C3=O)c2)c1` (repeat unit) showed a glass transition temperature of 116.00 °C.

`*c1cccc(OCCCCCCCCCCCCOc2cccc(N3C(=O)c4ccc(-c5cccc6c5C(=O)N(*)C6=O)cc4C3=O)c2)c1` (repeat unit) displayed a glass transition temperature of 116.00 °C.

Molecule `*c1cccc(OCCCCCCCCCOc2cccc(N3C(=O)c4ccc(-c5ccc6c(c5)C(=O)N(*)C6=O)cc4C3=O)c2)c1` (repeat unit) displayed a glass transition temperature of 132.00 °C.

The molecule `*c1cccc(OCCCCCCCCCOc2cccc(N3C(=O)c4ccc(-c5cccc6c5C(=O)N(*)C6=O)cc4C3=O)c2)c1` (repeat unit) registered a glass transition temperature of 134.00 °C.

In turn, `*c1cccc(OCCCCCOc2cccc(N3C(=O)c4ccc(-c5ccc6c(c5)C(=O)N(*)C6=O)cc4C3=O)c2)c1` (repeat unit) came in with a glass transition temperature of 165.00 °C.

`*c1cccc(OCCCCOc2cccc(N3C(=O)c4ccc(-c5cccc6c5C(=O)N(*)C6=O)cc4C3=O)c2)c1` (repeat unit) registered a glass transition temperature of 178.00 °C.
